# In patent publication US20080234203A1, “Use of Substances Having Oxytocin Antagonistic Properties” (Ferring BV, priority 2004, published 2008):
# Columns and labels:
# [1] = system: isolated rat uterine artery; test: In vitro contractility of isolated rat uterine artery from nonpregnant, midpregnant and late pregnant rats
# Excerpt: The X axis-represents the oxytocin concentration {log M} and the Y axis represents % of phenylephrine-induced contraction. […] The following pD2 values were obtained, non-pregnant (9.32±0.41, n=7), midpregnant (7.46±0.13, n=6) and late pregnant (7.87±0.39, n=6). It could be speculated that the generally lower sensitivity of uterine vessels during pregnancy is related to eventually higher local oxytocin concentrations.
# (§1) Nonpregnant or timed-pregnant Sprague-Dawley rats (of a 22-day pregnancy, with day 1 being the day when the sperm plug was observed) were obtained from Charles River Laboratories (Houston, Tex.). In some studies Spontaneously Hypertensive Rats (SHR) and their respective normatensive controls (WKY) were used. Rats were killed by means of carbon dioxide inhalation on day 14 (midterm pregnant) or day 22 before labor (term pregnant) or during the estrus cycle (nonpregnant). […] Contractions of uterine vascular tissues (cut into rings) were recorded and stored on computer with the DI-220 (DataQ Instruments Inc, Akron, Ohio) data acquisition system. […]
# (§2) Data were analyzed by using Windaq/200 (DataQ Instruments Inc) software. Integral activity as an area under the tracing of vascular contractions for 10 minutes (expressed as milligrams per second) before (basal activity) and after the addition of each concentration of the agent was calculated and compared with basal activity (as percentage change). […] The concentration of oxytocin causing 50% of the maximal effect was determined, and the −log50 of the half maximal effect and the area under the concentration-response curves were calculated and compared. The data are expressed as mean ± SD. […]
# [2] = system: isolated uterine artery, femoral artery, carotoid artery and aorta; test: In vitro contractility of isolated arteries from non-pregnant SHR rats; design: species or system spontaneous hypertensive (SHR) rats; conditions: uterine arteries compared with femoral artery
# Excerpt: as §1, §2
# [3] = system: isolated uterine artery, femoral artery, carotoid artery and aorta; test: In vitro contractility of isolated arteries from non-pregnant WKY rats; design: species or system Wistar (WKY) rats
# Excerpt: as §1, §2
# pregnant rats = test: Blood pressure measurements in pregnant rats (tail cuff); type: in vivo, rat; conditions: 200 μg/d, gestational day 19 to 22 and pp1 to pp7
# Method: The X axis represents the time of pregnancy (gestational age), and the Y axis represents the systolic blood pressure (mmHg). Barusiban (200 μg/d), atosiban (200 μg/d) and control (saline) (200 μg/d) were administered to pregnant rats from gestational day 19 to 22 and during pp1 to pp7 (pp=post partum).
# Animals. Adult nulliparous pregnant rats (300-325 g body weight) were purchased from Harlan Sprague Dawley, Inc (Indianapolis, Ind.), and were received in the animal facilities on day 16 of pregnancy (with day 1 being the day of the positive sperm smear result). All animals were given free access to food and water.
# Blood pressure measurement. Starting on day 19 of pregnancy systolic blood pressure was measured daily or every other day with a pneumatic tail cuff device (NARCO Biosystems, Inc, Austin, Tex.) in animals that had been warmed in a metal chamber maintained at approximately 30° C. Blood pressure values obtained from 3 consecutive measurements were averaged and recorded as the pressure for a given rat at each point. Measurements of systolic blood pressure of all animals were carried out until delivery and for seven days post partum (pp7) All animals delivered on day 22 of gestation, the expected day of delivery. Three groups of animals were studied: Group 1. […]
# Statistical analysis. Mean +/− SEM values were calculated for blood pressure levels on each day of pregnancy and post partum. […]
Molecule,"pD2 (oxytocin-induced contraction, % of phenylephrine-induced contraction) ([1]; uterine artery of late pregnant rats, n=6)","pD2 (oxytocin-induced contraction, % of phenylephrine-induced contraction) ([1]; uterine artery of midpregnant rats, n=6)","pD2 (oxytocin-induced contraction, % of phenylephrine-induced contraction) ([1]; uterine artery of non-pregnant rats, n=7)",oxytocin sensitivity (contraction dose/response) [2],"oxytocin sensitivity (contraction dose/response) ([3]; uterine arteries compared with femoral artery, carotoid artery and aorta, non-pregnant WKY rats)",oxytocin sensitivity (contraction dose/response) ([3]; uterine arteries of non-pregnant WKY rats compared with SHR rats),systolic blood pressure (pregnant rats)
CC[C@H](C)[C@@H]1NC(=O)[C@H](Cc2ccc(O)cc2)NC(=O)[C@@H](N)CSSC[C@@H](C(=O)N2CCC[C@H]2C(=O)N[C@@H](CC(C)C)C(=O)NCC(N)=O)NC(=O)[C@H](CC(N)=O)NC(=O)[C@H](CCC(N)=O)NC1=O [oxytocin],7.87±0.39,7.46±0.13,9.32±0.41,highest sensitivity,outstanding high sensitivity,higher sensitivity,
"C^4,6, S^1-cyclo [Barusiban, C^4,6, S^1-cyclo [N-(3-sulfanylpropanoyl) -D-tryptophyl-L -isoleucyl-L-alloisoleucyl-L-asparaginyl-L-2-aminobutanoyl-N-methyl-L-ornithinol]]",,,,,,,beneficial drop in systolic blood pressure around birth
